Test results as given in PubChem BioAssay AID256 (DTP/NCI, 2004).
Where “and” joins values, the source holds several entries; their conditions need not be identical. Equal values may be shown once. Inconclusive results and toxic doses are left out.

System: CD2F1 mice, L1210 leukemia ip, survival T/C
Assay: NCI In Vivo Anticancer Drug Screen. Data for tumor model L1210 Leukemia (intraperitoneal) in CD2F1 (CDF1) mice
Details: endpoint: mean survival time, higher = longer survival
Summary of the method: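 Activity against a transplanted murine tumor was judged by comparing the compound group with a vehicle group. The outcome in the treated animals was divided by that in the controls.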

[1] = dose: 100.0 mg/kg/injection, schedule: Q01DX009 (ip), vehicle: saline with Tween-80
[2] = dose: 100.0 mg/kg/injection, schedule: Q04DX003 (ip), vehicle: saline with Tween-80
[3] = dose: 200.0 mg/kg/injection, schedule: Q01DX009 (ip), vehicle: saline with Tween-80
[4] = dose: 200.0 mg/kg/injection, schedule: Q04DX003 (ip), vehicle: saline with Tween-80
[5] = dose: 400.0 mg/kg/injection, schedule: Q01DX009 (ip), vehicle: saline with Tween-80
[6] = dose: 400.0 mg/kg/injection, schedule: Q04DX003 (ip), vehicle: saline with Tween-80
[7] = dose: 75.0 mg/kg/injection, schedule: Q01DX001 (ip), vehicle: other
[8] = dose: 150.0 mg/kg/injection, schedule: Q01DX001 (ip), vehicle: other
[9] = dose: 100.0 mg/kg/injection, schedule: Q04DX002 (ip), vehicle: saline with Tween-80
[10] = dose: 200.0 mg/kg/injection, schedule: Q04DX002 (ip), vehicle: saline with Tween-80
[11] = dose: 25.0 mg/kg/injection, schedule: Q01DX009 (ip), vehicle: saline with Tween-80
[12] = dose: 50.0 mg/kg/injection, schedule: Q01DX009 (ip), vehicle: saline with Tween-80
[13] = dose: 100.0 mg/kg/injection, schedule: Q01DX009 (ip), vehicle: saline
[14] = dose: 100.0 mg/kg/injection, schedule: Q01DX001 (ip), vehicle: saline with Tween-80
[15] = dose: 12.5 mg/kg/injection, schedule: Q01DX009 (ip), vehicle: saline with Tween-80

In the case of `CCCCOCCN1CCN(CCCN2c3ccccc3Sc3ccc(C(F)(F)F)cc32)CC1`, the T/C (dose: 2.3 mg/kg/injection, schedule: Q01DX001 (ip), vehicle: saline) is reported as 106 % of control, the T/C (dose: 3.5 mg/kg/injection, schedule: Q01DX001 (ip), vehicle: saline) is reported as 100 % of control and the T/C (dose: 5.2 mg/kg/injection, schedule: Q01DX001 (ip), vehicle: saline) is reported as 105 % of control. The T/C (dose: 7.2 mg/kg/injection, schedule: Q01DX001 (ip), vehicle: saline) was 112 % of control, the T/C (dose: 11.0 mg/kg/injection, schedule: Q01DX001 (ip), vehicle: saline) was 107 % of control and the T/C (dose: 16.0 mg/kg/injection, schedule: Q01DX001 (ip), vehicle: saline) was 104 % of control.
For `O=Cc1n[nH]nc1-c1ccccc1`, the T/C [1] was 94 % of control, the T/C [2] was 98 % of control and the T/C [3] was 100 % of control. For the same molecule, the T/C [4] was 101 % of control, the T/C [5] was 103 % of control and the T/C [6] was 95 % of control.
In the case of `O=C(O)C1OC(C(=O)O)C(C(=O)O)C1C(=O)O` (stereo not drawn), the T/C [7] is reported as 100 % of control, the T/C [8] is reported as 100 % of control and the T/C (dose: 300.0 mg/kg/injection, schedule: Q01DX001 (ip), vehicle: other) is reported as 95 % of control.
For `Oc1ccc(/C=N/NC(=S)Nc2cccnc2)nc1`, the T/C [9] was 87 % of control, the T/C [10] was 87 % of control and the T/C (dose: 400.0 mg/kg/injection, schedule: Q04DX002 (ip), vehicle: saline with Tween-80) was 91 % of control.
In the case of `CN(C)N=Nc1ccc(S(=O)(=O)Nc2ncccn2)cc1`, the T/C [11] is reported as 120 % of control, the T/C [12] is reported as 124 % of control and the T/C [2] is reported as 113 % of control. For the same molecule, the T/C [6] was 157 % of control.
With `c1ccc2c[n+](C[n+]3ccc4ccccc4c3)ccc2c1` the T/C (dose: 50.0 mg/kg/injection, schedule: Q01DX009 (ip), vehicle: saline) was 96 % of control, the T/C [13] was 102 % of control and the T/C (dose: 200.0 mg/kg/injection, schedule: Q01DX009 (ip), vehicle: saline) was 102 % of control.
`CCC/C(=N\Nc1ccc([N+](=O)[O-])cc1[N+](=O)[O-])c1ccccc1` was tested, and the T/C [11] was 94 % of control, the T/C (dose: 25.0 mg/kg/injection, schedule: Q04DX003 (ip), vehicle: saline with Tween-80) was 104 % of control and the T/C [12] was 105 % of control. For the same molecule, the T/C (dose: 50.0 mg/kg/injection, schedule: Q04DX003 (ip), vehicle: saline with Tween-80) was 115 % of control, the T/C [1] was 94 % of control and the T/C [2] was 98 % of control.
In the case of `O=C1C=CC(O)CCC1` (stereo not drawn) (tested in a mixture with another compound), the T/C [2] is reported as 101 % of control, the T/C [4] is reported as 101 % of control and the T/C [6] is reported as 97 % of control.
`CC1CP(c2ccccc2)(c2ccccc2)(c2ccccc2)OC1(C(=O)c1ccccc1)c1ccccc1` (stereo not drawn) was tested, and the T/C [11] was 89 % of control and the T/C [2] was 91 % of control.
`C/C(=N\N)c1ccc(Cl)cc1` was tested, and the T/C [2] was 103 % of control, the T/C [4] was 123 % of control and the T/C [6] was 109 % of control.
`CC(N)C(=O)NC1C(CO)OC(n2cnc3c(N)ncnc32)C1O` (stereo not drawn) was tested, and the T/C (dose: 100.0 mg/kg/injection, schedule: Q01DX001 (ip), vehicle: saline) was 100 % of control, the T/C (dose: 200.0 mg/kg/injection, schedule: Q01DX001 (ip), vehicle: saline) was 97 % of control and the T/C (dose: 400.0 mg/kg/injection, schedule: Q01DX001 (ip), vehicle: saline) was 100 % of control.
For `CC1NC(=O)OC1(C)c1ccccc1` (stereo not drawn), the T/C [9] was 103 % of control and the T/C [10] was 98 % of control.
With `CCNC(C)(C)C(SSSC(c1ccc(C(F)(F)F)cc1)C(C)(C)NCC)c1ccc(C(F)(F)F)cc1` (stereo not drawn) the T/C [13] was 90 % of control.
For `CCOC(=O)C(CO)(NC(C)=O)C(=O)OCC`, the T/C [1] was 94 % of control, the T/C [3] was 98 % of control and the T/C [5] was 105 % of control.
For `COc1ccc(CCNC(=O)C(c2ccccc2)c2ccccc2)cc1OC`, the T/C [1] was 97 % of control, the T/C [2] was 103 % of control and the T/C [3] was 90 % of control. The T/C [4] was 101 % of control, the T/C [5] was 92 % of control and the T/C [6] was 100 % of control.
For `COC1CCC2CC1[N+](C)(C)C2` (stereo not drawn), the T/C (dose: 12.5 mg/kg/injection, schedule: Q04DX002 (ip), vehicle: saline) was 96 % of control, the T/C (dose: 25.0 mg/kg/injection, schedule: Q04DX002 (ip), vehicle: saline) was 101 % of control and the T/C (dose: 50.0 mg/kg/injection, schedule: Q04DX002 (ip), vehicle: saline) was 101 % of control.
In the case of `C(#Cc1ccccc1)/C=C/C=C/c1ccccc1`, the T/C (dose: 25.0 mg/kg/injection, schedule: Q01DX001 (ip), vehicle: saline with Tween-80) is reported as 95 % of control, the T/C (dose: 50.0 mg/kg/injection, schedule: Q01DX001 (ip), vehicle: saline with Tween-80) is reported as 87 % of control and the T/C [14] is reported as 87 % of control and 89 % of control.
For `CCN(CC)C(=O)CS(=O)(=O)c1ccc(C)cc1`, the T/C [1] was 100 % of control, the T/C [3] was 100 % of control and the T/C [5] was 101 % of control.
For `CCC1CC(=O)C2Nc3ccccc3C2C1` (stereo not drawn), the T/C [14] was 88 % of control and the T/C (dose: 400.0 mg/kg/injection, schedule: Q01DX001 (ip), vehicle: saline with Tween-80) was 86 % of control.
With `Oc1ccc(SCc2ccc(NCc3ccccc3)cc2)cc1` the T/C (dose: 12.5 mg/kg/injection, schedule: Q01DX009 (ip), vehicle: DMSO) was 95 % of control, the T/C [15] was 99 % of control and the T/C (dose: 25.0 mg/kg/injection, schedule: Q01DX009 (ip), vehicle: DMSO) was 97 % of control. The T/C [11] was 97 % of control, the T/C (dose: 50.0 mg/kg/injection, schedule: Q01DX009 (ip), vehicle: DMSO) was 97 % of control and the T/C [12] was 103 % of control. The T/C (dose: 100.0 mg/kg/injection, schedule: Q01DX009 (ip), vehicle: DMSO) was 92 % of control, the T/C [1] was 104 % of control and the T/C [3] was 101 % of control. For the same molecule, the T/C [5] was 101 % of control.
With `O=P(O)(O)C1c2ccccc2-c2ccccc21` the T/C [1] was 100 % of control, the T/C [2] was 97 % of control and the T/C [3] was 94 % of control. The T/C [4] was 96 % of control and the T/C [6] was 100 % of control.
For `Cc1ccc(/C=N/N2C(=O)CSC2=S)cc1`, the T/C [7] was 102 % of control and the T/C [8] was 97 % of control.
In the case of `O=C(Nc1cc(C(F)(F)F)ccc1Cl)c1cccc(C(=O)Nc2cc(C(F)(F)F)ccc2Cl)c1`, the T/C [15] is reported as 86 % of control, the T/C [11] is reported as 90 % of control and the T/C [12] is reported as 92 % of control.
For `CC(=O)[C@H]1CC[C@H]2[C@@H]3CC[C@@H]4CC(=O)CC[C@]4(C)[C@H]3CC[C@]12C`, the T/C [2] was 96 % of control, the T/C [4] was 96 % of control and the T/C [6] was 96 % of control.
With `CCOC(=O)C(C#N)N=Nc1ccccc1` (stereo not drawn) the T/C [1] was 95 % of control, the T/C [3] was 95 % of control and the T/C [5] was 95 % of control.
For `COc1cccc2c1C(=O)c1c(O)c3c(c(O)c1C2=O)C[C@@](O)(C(=O)COC(C)=O)C[C@@H]3OC1CC(N)C(O)C(C)O1` (stereo partly drawn), the T/C (dose: 3.0 mg/kg/injection, schedule: Q01DX009 (ip), vehicle: saline) was 156 % of control and the T/C (dose: 3.0 mg/kg/injection, schedule: Q04DX003 (ip), vehicle: saline with Tween-80) was 118 % of control.
In the case of `CC(=O)Nc1nc(Cl)nc2c1ncn2Cc1ccccc1`, the T/C [7] is reported as 95 % of control and the T/C [8] is reported as 96 % of control.
`CC(CCCC1SCC2NC(=O)NC21)C(=O)O` (stereo not drawn) was tested, and the T/C [2] was 98 % of control, the T/C [4] was 98 % of control and the T/C [6] was 98 % of control.
